The source of these data is article PMC3767473 (Angewandte Chemie (International ed. in English), 2013).

Numbered stars: 1 amine (or outer) side, 2 acyl side, 3 side chain; on linkers, the order of the positions; unused ones are H or OH. Bridge positions count the residues as written; N and C are the ends. Square brackets hold non-standard residues; d marks the D form. Side chains are listed from the residue outwards. Peptide text beside a SMILES is read from it. * marks the point of attachment. X1 = O=C([C@H](Cc1ccc(-n2nnc3c2-c2ccccc2CN([*:3])c2ccccc2-3)cc1)N[*:1])[*:2]; X2 = Cc1c(CC(=O)*)c(=O)oc2cc(N)ccc12; βAla = NCCC(=O)O

The conditions of assay [1]: cited from earlier work.
Assay [2] relates to porcine pancreatic trypsin. The assay can be described thus: Binding to commercial porcine pancreatic trypsin. The following applies: Fig. S8.

For the molecule “kalata B1: the first cyclotide to be discovered (GLPVCGETCVGGTCNTPGCTCSWPVCTRN; Kalata-B1; UniProt P56254 89-117, looked up)”, the oral uterotonic activity entry in assay [1] is “orally effective uterotonic”.

Consider `CC[C@H](C)[C@@H]1NC(=O)[C@@H]2CSSC[C@@H]3NC(=O)[C@H](C(C)C)NC(=O)CNC(=O)CNC(=O)[C@H](CC(=O)O)NC(=O)[C@H](CO)NC(=O)CNC(=O)[C@H](CO)NC(=O)CNC(=O)[C@@H]4CSSC[C@H](NC(=O)[C@H](CC(=O)O)NC(=O)[C@H](CO)NC(=O)[C@H](Cc5ccc(-n6nnc7c6-c6ccccc6CN(C(=O)CCNC(=O)Cc6c(C)c8ccc(N)cc8oc6=O)c6ccccc6-7)cc5)NC(=O)[C@H](CCCNC(=N)N)NC(=O)[C@H](CCCNC(=N)N)NC(=O)[C@H](CSSC[C@H](NC1=O)C(=O)N[C@@H](CCCNC(=N)N)C(=O)NCC(=O)N[C@@H](CC(N)=O)C(=O)NCC(=O)N[C@@H](Cc1ccc(O)cc1)C(=O)N4)NC(=O)[C@H](CCCNC(=N)N)NC(=O)[C@H](CCC(N)=O)NC(=O)[C@H](CC(C)C)NC(=O)[C@H]([C@@H](C)CC)NC(=O)[C@H](CCCCN)NC(=O)[C@@H]1CCCN1C3=O)C(=O)N1CCC[C@H]1C(=O)NCC(=O)N[C@@H](C)C(=O)N2` [AMCA-labeled MCoTI-AziF] (cyclo(ACICRGNGYCGSGSDGGVCPKILQRCRR[X1]([βAla-X2])SDCPG); disulfide 2-19, 4-26, 10-32), for which the “binding to porcine pancreatic trypsin” value in assay [2] (commercial trypsin) is reported as “able to bind commercial porcine pancreatic trypsin efficiently”. Besides, the “effect of the fluorophore in loop 2 on biological activity” value in assay [2] (trypsin binding) is on record as “did not have a detrimental effect on its biological activity”.
